# Paper PMC4452637, “Identification of positron emission tomography (PET) tracer candidates by prediction of the target-bound fraction in the brain” (EJNMMI Research, 2014)
# Like-named read-outs stand apart in the source and are kept apart here.
# Key:
# NET = settings: literature value; 76 (Additional file 1); cited from earlier work
# D2 [1] = settings: PET, cited from earlier work
# [2] = High-throughput brain slice method (Vu,brain); settings: unbound volume of distribution in brain, measured in rat brain slices, LC-MS/MS (no fu,brain tabulated in Table S1)
# Amyloid [3] = biological target: Amyloid; parameters: method as in ref 12, 13, 14, 15 (Additional file 1); settings: literature value; 15 (Additional file 1); cited from earlier work
# AchE = settings: literature value; ref 18 (Additional file 1); cited from earlier work
# [4] = Unbound fraction in brain homogenate (fu,brain); Vu,brain calculated from it with pH-partition model; settings: calculated from reported fu,brain and tracer pKa with pH-partition model (tracers with fu,brain tabulated, footnote h of Table S1)
# Procedure: The unbound volume of distribution in the brain (Vu,brain) describing the extent of non-specific partitioning was determined for 31 tracers using a previously described high-throughput brain slice method [11].
# [5] = parameters: method as in ref 10 (a number printed in a supplementary file, which may have a reference list of its own: not looked up in the article's list); settings: unbound fraction in homogenized brain tissue, reported; cited from earlier work
# D2 [6] = biological target: D2; parameters: method as in ref 22, 31, 62, 82 (Additional file 1); settings: literature value; 82 (Additional file 1); cited from earlier work
# GABA = biological target: GABA; parameters: method as in ref 33, 74 (Additional file 1); settings: literature value; 74 (Additional file 1); cited from earlier work
# KOR = biological target: KOR; parameters: method as in ref 35 (Additional file 1); settings: literature value; ref 35 (Additional file 1); cited from earlier work
# NK1 = biological target: NK1; parameters: method as in ref 36 (Additional file 1); settings: literature value; ref 36 (Additional file 1); cited from earlier work
# H3 = biological target: H3; parameters: method as in ref 38 (Additional file 1); settings: literature value; ref 38 (Additional file 1); cited from earlier work
# SERT = biological target: SERT; parameters: method as in ref 5, 19, 43, 45, 67 (Additional file 1); settings: literature value; 67 (Additional file 1); cited from earlier work
# CB1r = biological target: CB1r; parameters: method as in ref 48 (Additional file 1); settings: literature value; ref 48 (Additional file 1); cited from earlier work
# DAT [7] = biological target: DAT; parameters: method as in ref 26, 31, 57 (Additional file 1); settings: literature value; 57 (Additional file 1); cited from earlier work
# nAChr a4b2 = settings: PET, thalamus, ref 3 (Additional file 1), cited from earlier work
# Amyloid [8] = settings: PET, cortex, 61 (Additional file 1), cited from earlier work
# 5HT2a = settings: PET, temporal cortex, 47 (Additional file 1), cited from earlier work
# DAT [9] = settings: PET, striatum, 58 (Additional file 1), cited from earlier work
# TSPO [10] = biological target: TSPO; parameters: method as in ref 28, 29, 55 (Additional file 1); settings: literature value; 55 (Additional file 1); cited from earlier work
# TSPO [11] = settings: PET, basal ganglia, 81 (Additional file 1), cited from earlier work
# 5HT1a = settings: PET, hippocampus, 65 (Additional file 1), cited from earlier work
# [12] = caudate/striatum, ref 23 (Additional file 1)
compound,measurement,setting,value
CNCCC(Oc1ccccc1OC)c1ccccc1 (racemic) [[^11C]Nisoxetine],Kd,NET,0.73 nM
CCN1CCC[C@H]1CNC(=O)c1c(O)c(Cl)cc(Cl)c1O[11CH3] (racemic) [[^11C]Raclopride],BP ND,D2 [1]; [12],2.6
Cc1ccc(N2CCN([11CH3])CC2)c2oc(C(=O)Nc3ccc(N4CCOCC4)cc3)cc(=O)c12 [[^11C]AZ10419369],"V u,brain",[2],30 mL/g brain
CNc1ccc(-c2nc3ccc(O)cc3s2)cn1 [[^11C]AZD2184],Kd,Amyloid [3],4.9 nM
[11CH3]Nc1ccc(-c2nc3ccc(O)cc3s2)cn1 [[^11C]AZD2184],"V u,brain",[2],33 mL/g brain
CN1C(=O)Cc2cc3c(CCC4CCN(Cc5ccccc5)CC4)noc3cc21 [[^11C]CP-126998],Kd,AchE,0.48 nM
[11CH3]N1C(=O)Cc2cc3c(CCC4CCN(Cc5ccccc5)CC4)noc3cc21 [[^11C]CP-126998],"V u,brain",[4],41 mL/g brain
same,"fu,brain",[5],0.07
CN([11CH3])Cc1ccccc1Sc1ccc(C#N)cc1N [[^11C]DASB],"V u,brain",[4],31 mL/g brain
same,"fu,brain",[5],0.09
CCN1CCC[C@H]1CNC(=O)c1cc(Br)cc(OC)c1OC [[^11C]FLB457],Kd,D2 [6],0.02 nM
CCN1CCC[C@H]1CNC(=O)c1cc(Br)cc(OC)c1O[11CH3] [[^11C]FLB457],"V u,brain",[4],26 mL/g brain
same,"fu,brain",[5],0.11
CCOC(=O)c1ncn2c1CN(C)C(=O)c1cc(F)ccc1-2 [[^11C]Flumazenil],Kd,GABA,0.7 nM
COC(=O)N1CCN(C(=O)Cc2ccc(Cl)c(Cl)c2)[C@H](CN2CCCC2)C1 [[^11C]GR103545],Kd,KOR,0.048 nM
[11CH3]OC(=O)N1CCN(C(=O)Cc2ccc(Cl)c(Cl)c2)[C@H](CN2CCCC2)C1 [[^11C]GR103545],"V u,brain",[4],41 mL/g brain
same,"fu,brain",[5],0.07
COc1ccc(-n2nnnc2C(F)(F)F)cc1CN[C@H]1CCCN[C@H]1c1ccccc1 [[^11C]GR205171],Kd,NK1,0.016 nM
same,"V u,brain",[4],57 mL/g brain
same,"fu,brain",[5],0.05
CNC(=O)c1ccc(Oc2ccc3c(c2)CCN(C2CCC2)CC3)nc1 [[^11C]GSK189254A],Kd,H3,0.08 nM
[11CH3]NC(=O)c1ccc(Oc2ccc3c(c2)CCN(C2CCC2)CC3)nc1 [[^11C]GSK189254A],"fu,brain",[5],0.24
Cc1nccc2c1[nH]c1cc(O[11CH3])ccc12 [[^11C]Harmine],"V u,brain",[4],25 mL/g brain
same,"fu,brain",[5],0.04
Cc1ccc(Sc2ccccc2CN(C)C)c(N)c1 [[^11C]MADAM],Kd,SERT,0.06 nM
Cc1ccc(Sc2ccccc2CN(C)[11CH3])c(N)c1 [[^11C]MADAM],"V u,brain",[2],90 mL/g brain
COc1c(O[11CH3])cccc1[C@H](O)C1CCN(CCc2ccc(F)cc2)CC1 [[^11C]MDL100907],"V u,brain",[4],17 mL/g brain
CSc1ccc([C@H]2CN3CCC[C@H]3c3ccccc32)cc1 [[^11C]McN5652],Kd,SERT,0.2 nM
[11CH3]Sc1ccc([C@H]2CN3CCC[C@H]3c3ccccc32)cc1 [[^11C]McN5652],"V u,brain",[2],238 mL/g brain
COc1ccccc1O[C@@H](c1ccccc1)[C@H]1CNCCO1 [[^11C]MeNER],Kd,NET,2.5 nM
[11CH3]Oc1ccccc1O[C@@H](c1ccccc1)[C@H]1CNCCO1 [[^11C]MeNER],"V u,brain",[4],31 mL/g brain
same,"fu,brain",[5],0.07
COc1cccc([C@H]2C[C@@H](N[C@H](C)c3ccccc3)C(=O)N2c2ccc(C(F)(F)F)cc2)c1 [[^11C]MePPEP],Kd,CB1r,0.1 nM
C[C@@H](N[C@@H]1C[C@H](c2cccc(O[11CH3])c2)N(c2ccc(C(F)(F)F)cc2)C1=O)c1ccccc1 [[^11C]MePPEP],"V u,brain",[2],296 mL/g brain
[11CH3]N1CCc2cc(Cl)c(O)cc2[C@@H](c2cccc3ccoc23)C1 [[^11C]NNC112],"V u,brain",[2],70 mL/g brain
COC(=O)C1C(c2ccc(C)cc2)CC2CCC1N2CC=CI (stereo not shown) [[^11C]PE2I],Kd,DAT [7],4.9 nM
Cc1ccc(C2CC3CCC(C2C(=O)O[11CH3])N3CC=CI)cc1 (stereo not shown) [[^11C]PE2I],"V u,brain",[2],39 mL/g brain
[11CH3]Nc1ccc(-c2nc3ccc(O)cc3s2)cc1 [[^11C]PIB],"fu,brain",[5],0.004
CCC(C)N(C)C(=O)c1cc2ccccc2c(-c2ccccc2Cl)n1 (stereo not shown) [[^11C]PK11195],"V u,brain",[4],59 mL/g brain
same,"fu,brain",[5],0.01
CCN1CCC[C@H]1CNC(=O)c1c(OC)ccc(Br)c1OC [[^11C]Remoxipride],Kd,D2 [6],270 nM
[11CH3]N1CCc2cc(Cl)c(O)cc2[C@@H](c2ccccc2)C1 [[^11C]SCH23390],"V u,brain",[4],32 mL/g brain
same,"fu,brain",[5],0.06
COc1ccccc1N1CCN(CCN(c2ccccn2)[11C](=O)C2CCCCC2)CC1 [[^11C]WAY100635],"V u,brain",[2],14 mL/g brain
[18F]c1ncccc1OC[C@@H]1CCN1 [[^18 F]2-FA-85380],BP ND,nAChr a4b2,1.8
same,BP ND,nAChr a4b2; listed as [^18F]2-FA-85380,1.8[3]
CNc1ccc(-c2cc3cc(O)ccc3o2)c(F)n1 [[^18 F]AZD4694],Kd,Amyloid [3],2.3 nM
CNc1ccc(-c2cc3cc(O)ccc3o2)c([18F])n1 [[^18 F]AZD4694],"V u,brain",[2],205 mL/g brain
same,BP ND,Amyloid [8],1.2
same,BP ND,Amyloid [8]; listed as [^11C]AZD4694,1.2[16]
O=C(c1ccc([18F])cc1)C1CCN(CCn2c(=S)[nH]c3ccccc3c2=O)CC1 [[^18 F]Altanserin],"V u,brain",[4],122 mL/g brain
same,BP ND,5HT2a,1.06
same,BP ND,5HT2a; listed as [^18F]Altanserin,1.06[8]
same,"fu,brain",[5],0.02
Cc1ccc([C@H]2C[C@@H]3CC[C@H]([C@H]2C(=O)OCCF)N3C/C=C/I)cc1 [[^18 F]FE-PE2I],Kd,DAT [7],12 nM
Cc1ccc([C@H]2C[C@@H]3CC[C@H]([C@H]2C(=O)OCC[18F])N3C/C=C/I)cc1 [[^18 F]FE-PE2I],"V u,brain",[2],62 mL/g brain
same,BP ND,DAT [9],4.1
same,BP ND,DAT [9]; listed as [^11C]FE-PE2I,4.1[27]
CC(=O)N(Cc1ccccc1OCCF)c1cnccc1Oc1ccccc1 [[^18 F]FEPPA],Kd,TSPO [10],0.07 nM
CC(=O)N(Cc1ccccc1OCC[18F])c1cnccc1Oc1ccccc1 [[^18 F]FEPPA],"V u,brain",[4],15 mL/g brain
same,BP ND,TSPO [11],4.4
same,BP ND,TSPO [11]; listed as [^18F]FEPPA,4.4[30]
same,"fu,brain",[5],0.07
COC(=O)[C@H]1[C@@H](c2ccc(I)cc2)C[C@@H]2CC[C@H]1N2CCCF [[^18 F]FP-CIT],Kd,DAT [7],33 nM
COC(=O)[C@H]1[C@@H](c2ccc(I)cc2)C[C@@H]2CC[C@H]1N2CCC[18F] [[^18 F]FP-CIT],"V u,brain",[2],36 mL/g brain
same,BP ND,DAT [9],1.0
same,BP ND,DAT [9]; listed as [^18F]FP-CIT,1[32]
C=CCN1CCC[C@H]1CNC(=O)c1cc(CCCF)cc(OC)c1OC [[^18 F]Fallypride],Kd,D2 [6],0.03 nM
C=CCN1CCC[C@H]1CNC(=O)c1cc(CCC[18F])cc(OC)c1OC [[^18 F]Fallypride],BP ND,D2 [1]; [12],22.2
same,BP ND,"D2 [1]; caudate/striatum, ref 23 (Additional file 1), listed as [^18F]Fallypride",22.2[23]
same,BP ND,"D2 [1]; thalamus, 32 (Additional file 1)",2.11
same,BP ND,"D2 [1]; thalamus, 32 (Additional file 1), listed as [^18F]Fallypride",2.11[23]
same,"V u,brain",[4],18 mL/g brain
same,"fu,brain",[5],0.15
COc1ccccc1N1CCN(CCN(C(=O)c2ccc([18F])cc2)c2ccccn2)CC1 [[^18 F]MPPF],BP ND,5HT1a,1.6
same,BP ND,5HT1a; listed as [^18F]MPPF,1.6[51]
same,"V u,brain",[4],14 mL/g brain
same,"fu,brain",[5],0.1
O=C(CCCN1CCC2(CC1)C(=O)NCN2c1ccccc1)c1ccc([18F])cc1 [[^18 F]Spiperone],"V u,brain",[2],147 mL/g brain
